Measured values reported in US20230405003A1, “APPLICATION OF THYMIDINE DERIVATIVE IN PREPARATION OF DRUGS” (ONQUALITY PHARMACEUTICALS CHINA LTD., priority 2020, published 2023).
Read-outs that look alike come from different tables or passages of the source.

Experiments:
[1] = test system: hand-foot syndrome caused by capecitabine in SD rats; assay: Rat model of hand-foot syndrome caused by capecitabine, gel application; assay type: in vivo; conditions: Rattus norvegicus, topical, 960 h, rats, capecitabine 4000 mg/kg once daily, 40 days; for inhibition in vivo at 0.1 %: gel 0.10 wt%; for inhibition in vivo at 0.5 %: gel 0.50 wt%; for inhibition in vivo at 1 %: gel 1 wt%; for inhibition in vivo at 3 %: gel 3 wt%; for inhibition in vivo at 5 %: gel 5 wt%
Summary of the method: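 Female SD rats (~200 g, n=10/group) were given daily oral capecitabine (castor oil/ethanol 1:1, diluted with PBS). Thymidine derivative gel, alone or combined with uridine derivative, or blank gel was applied to both hind paws for ~4 h daily until blank controls developed hand-foot syndrome. Control rate was blank incidence minus treated incidence; paws were also examined by HE and IHC.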

[2] = test system: hand-foot syndrome caused by capecitabine in Balb/c mice; assay: Mouse model of hand-foot syndrome caused by capecitabine, gel application or oral administration; assay type: in vivo; conditions: Mus musculus, topical, 360 h, capecitabine 1000 mg/kg once daily, 15 days; for inhibition in vivo at 5 %: gel 5 wt%; for inhibition in vivo at 1 %: transdermal 1% (wt %); for inhibition in vivo at 3 %: transdermal 3% (wt %)
Experimental: A mouse animal model was established. 6-week aged male Balb/c mice were administered with capecitabine by daily gavage. After a few days, mice's paws developed hand-foot syndrome symptoms (similar to the results of the rat model, such as, in FIG. 13). Similar to the human body, mice developed hand-foot syndrome in the forepaws and hind paws after oral administration of capecitabine. The causes of the two are the same, and the disorder is also very similar. Therefore, mice are very good animal models for simulating the hand-foot syndrome caused by capecitabine.
After Balb/c mice were fed and adapted for one week (about 20 g), the mice were divided into groups, with 10 mice in each group. Then, the mice were subject to gavage administration. Capecitabine was dissolved in normal saline with pH=8, and the gavage dose was not greater than 0.3 mL at each time. After gavage, the blank gel was applied to the forepaws and the hind paws (about 4*0.5 cm*0.5 cm) in group of blank gel, and gels containing different drugs were applied to the forepaws and the hind paws (about 4*0.5 cm*0.5 cm) in group of administration. After application, the mice were fixed in Elizabethan collar for 4 hours. After 4 hours, the mice were released, wiped with clean water to remove any residual drug at the application site, and allowed back to the cage. The gavage and application tests are repeated daily until the group of blank has developed obvious hand-foot syndrome. […] Additionally, the thymidine derivative and the combination of thymidine derivative and uridine derivative were orally administered for observing the relief of the hand-foot syndrome. In examples 41-48, thymidine derivative and/or uridine derivative were/was applied, and in examples 49-52, thymidine derivative and/or uridine derivative were/was administered orally.
Table 5 lists the combinations of animal experiments of capecitabine and thymidine derivative (or a combination of thymidine derivative and uridine derivative) and the corresponding experimental results (wherein the data in the column of control rate=the occurrence rate of hand-foot syndrome in group of blank—the occurrence rate of hand-foot syndrome in group of administration).
The effect of thymidine derivative or a combination of thymidine derivative and uridine derivative on a mouse model with chemotherapeutic drug (capecitabine)-induced hand-foot syndrome was tested according to the method in Examples 41-52. Wherein, the drugs were administered transdermally for Examples 119-120 and orally for Examples 121-123.
The test thymidine derivative or the combination of thymidine derivative and uridine derivative, as well as the final concentration of the test compounds were shown in Table 9. Table 9 lists the combinations of animal experiments of capecitabine and the thymidine derivative gel (or a compounded gel of thymidine derivative and uridine derivative) and the corresponding experimental results (wherein the data in the column of control rate=the occurrence rate of hand-foot syndrome in Group of blank—the occurrence rate of hand-foot syndrome in Group of administration).

[3] = test system: pain in capecitabine hand-foot syndrome rats; assay: Pain of hand-foot syndrome, mechanical sensitivity in rats (von Frey); assay type: in vivo, rat; conditions: capecitabine 4000 mg/kg hand-foot syndrome rats; thymidine derivative 3%
Experimental: According to the method of Examples 91-115, after administration of a thymidine derivative (at a concentration of 3%) and co-administration of a thymidine derivative (at a concentration of 1%) with a uridine derivative (at a concentration of 3%) to rat hand-foot syndrome models constructed from 4000 mg/kg of capecitabine for a period of time, pain analysis was performed on the rats, and the pain assessment model was mechanical sensitivity in rats (von Frey). The experimental steps were as follows: first, the rats were allowed to adapt in the room for 1 hour, then the rats were placed in an observation box with a metal mesh floor, and the mice were allowed to stay in the box for 20 minutes to adapt to the experimental platform. Next, a von Frey device was used to detect paw pain by stimulating the surface of the rat's palm with specially designed cilia to detect the mechanical sensitivity of the animal at strength of 0.4 g, 0.8 g, 1.5 g, 2.5 g, 4 g, 8 g, 10 g and 20 g (IITC Life Science, Woodland Hills, 2390 series). […] The rat movement response was considered to be a vague response, in which case the stimulation experiment was repeated.

[4] = read-out: Control Rate Forepaws
[5] = read-out: Control Rate Hindpaws

What does the source list for `COc1ccc2cc([C@H](C)C(=O)OC[C@H]3O[C@@H](n4cc(C)c(=O)[nH]c4=O)C[C@@H]3O)ccc2c1` [T25]?
inhibition in vivo at 0.1 % [1, 4]: 22.2%; inhibition in vivo at 0.1 % [1, 5]: 33.3%; inhibition in vivo at 0.5 % [1, 4]: 22.2%; inhibition in vivo at 0.5 % [1, 5]: 44.4%; inhibition in vivo at 1 % [1, 4]: 37.5%; inhibition in vivo at 1 % [1, 5]: 50%; inhibition in vivo at 3 % [1, 4]: 62.5%; inhibition in vivo at 3 % [1, 5]: 75%; inhibition in vivo at 5 % [1, 4]: 57.1%; inhibition in vivo at 5 % [1, 5]: 71.4%; inhibition in vivo at 5 % [2, 4]: 44.4%; inhibition in vivo at 5 % [2, 5]: 66.7%; inhibition in vivo at 1 % [2, 4]: 22.2%; inhibition in vivo at 1 % [2, 5]: 44.4%; inhibition in vivo at 3 % [2, 4]: 25%; inhibition in vivo at 3 % [2, 5]: 37.5%; pain in rats (von Frey mechanical sensitivity) [3]: could significantly improve pain in rats
